According to patent US20070155739A1, “Substituted bis-amide metalloprotease inhibitors” (ALANTOS PHARMACEUTICALS, INC., priority 2005, published 2007):
Where two headings read alike, the source gives them in different places.

What was measured:
MMP-13 = MMP-13 (Homo sapiens, UniProt P45452); experiment: Assay for determining MMP-13 inhibition (fluorogenic substrate); type: biochemical
Procedure: The MMP-13 inhibiting activity of the bis-amide metalloprotease inhibiting compounds of the present invention may be measured using any suitable assay known in the art. A standard in vitro assay for MMP-13 inhibiting activity is described in Example 999 and a description of the microsomal stability assay is described in Example 999a.
Assay for Determining MMP-13 Inhibition
The typical assay for MMP-13 activity is carried out in assay buffer comprised of 50 mM Tris, pH 7.5, 150 mM NaCl, 5 mM CaCl2 and 0.05% Brij-35. Different concentrations of tested compounds are prepared in assay buffer in 50 μL aliquots. 10 μL of 40 nM stock solution of MMP-13 enzyme is added to the compound solution. The mixture of enzyme and compound in assay buffer is thoroughly mixed and incubated for 20 minutes at room temperature. Upon the completion of incubation, the assay is started by addition of 40 μL of 12.5 μM stock solution of MMP-13 fluorogenic substrate (Calbiochem Cat. No. 444235). The time-dependent increase in fluorescence is measured at the 325 nm excitation and 393 nm emission by automatic plate multireader. The IC50 values are calculated from the initial reaction rates. Selectivity assays were run in a similar manner using MMP-1, MMP-3, MMP-8, MMP-12, MMP-14 and TACE.

[1] = Microsomal stability, rat microsomes; type: in vitro ADME; conditions: rat microsomes 0.3 mg/mL, 1 μM compound, 60 min at 37° C.
Procedure: (§1) Assay for Microsomal Stability
(§2) For microsomal stability testing 1 μM conzentration of compound and human or rat microsomes (0.3 mg/mL, BD bioscience) are used in the in vitro assay. To ensure proper energy supply for microsomal degradation of compound, an energy regenerating system comprised of NADP, glucose 6-phosphate and glucose 6-phosphate dehydrogenase is added to samples and suspension is incubated for 60 min at 37° C. in rotary shaker. After incubation time, acetonitrile containing internal standard is added to stop metabolization by precipitation of proteins. After centrifugation step, supernatant is analysed by LC-MS/MS and percentage of compound remaining is analysed.

[2] = Microsomal stability, human microsomes; type: in vitro ADME; conditions: human microsomes 0.3 mg/mL, 1 μM compound, 60 min at 37° C.
Procedure: as §1, §2

[3] = Cell viability, comparison; type: cell-based; conditions: compared with unsubstituted Example 1040d
[4] = Microsomal stability, comparison in text (species not stated); type: in vitro ADME; conditions: compared with unsubstituted Example 1040d
Procedure: as §2

[5] = Table 1, read-out: IC50 (nM), Summary of MMP-13 Activity for Compounds of Formula I
[6] = Table 2, methyl substitution at R^2 or R^3, read-out: IC50 (nM), Comparison of MMP-13 Activity Versus Location of Substituent (R^2 or R^3)

With `Cc1cc(CNC(=O)c2cc(C(=O)N[C@@H](C)c3ccc(-c4nnn[nH]4)cc3)ncn2)ccc1F` [Example 1007] as the compound, how does the IC50 (MMP-13; [5]) read?
The IC50 was less than 10 nM.

Which IC50 (MMP-13; [6]) does the source give for `C[C@@H](NC(=O)c1cc(C(=O)NCc2ccc(-c3nnn[nH]3)cc2)ncn1)c1ccccc1` [Example 1040a] here?
The IC50 was greater than 100 nM.

With `Cc1cc(CNC(=O)c2cc(C(=O)N[C@@H](C)c3ccc(C(=O)N4CCOCC4)cc3)ncn2)ccc1F` [Example 1028e] as the compound, how does the IC50 (MMP-13; [5]) read?
The IC50 was less than 200 nM.

Which IC50 (MMP-13; [5]) does the source give for `O=C(NCc1ccc(F)cc1)c1cc(C(=O)N[C@@H](CO)c2ccc(-c3nnn[nH]3)cc2)ncn1` [Example 1004] here?
Its IC50 is less than 200 nM.

For `Cc1cc(CNC(=O)c2cc(C(=O)N[C@@H](C(N)=O)c3ccc(-c4nnn[nH]4)cc3)ncn2)ccc1F` [Example 1002], which IC50 (MMP-13; [5]) is on record?
The IC50 was less than 10 nM.

For `Cc1cc(CNC(=O)c2cc(C(=O)N[C@@H](C)c3ccc(C(=O)O)cc3)ncn2)ccc1F` [Example 1000], which IC50 (MMP-13; [5]) is on record?
Its IC50 is less than 200 nM.

Which results are given for `O=C(NCc1ccc(F)cc1)c1cc(C(=O)NCc2ccc(-c3nnn[nH]3)cc2)ncn1` [Example 1040e]?
Rat (%), microsomal stability, percentage of compound remaining [1]: 58%; Human (%), microsomal stability, percentage of compound remaining [2]: 98%

Which IC50 (MMP-13; [5]) does the source give for `CCc1cc(CNC(=O)c2cc(C(=O)N[C@@H](C)c3ccc(-c4nnn[nH]4)cc3)ncn2)cs1` [Example 1007o] here?
Its IC50 is less than 200 nM.

With `C[C@H](NC(=O)c1cc(C(=O)NCc2cccs2)ncn1)c1ccc(-c2nnn[nH]2)cc1` [Example 1007d] as the compound, how does the IC50 (MMP-13; [5]) read?
Its IC50 is less than 1000 nM.

For `C[C@H](NC(=O)c1cc(C(=O)NCc2ccc(-c3nnn[nH]3)cc2)ncn1)c1ccccc1` [Example 1040b], which IC50 (MMP-13; [6]) is on record?
The IC50 was less than 10 nM.

What about the “Rat (%), microsomal stability, percentage of compound remaining” value (from here on “Rat (%) … percentage of compound remaining”) [1] of the same compound?
The value was 96%.

What about the “Human (%), microsomal stability, percentage of compound remaining” value (shortened to “Human (%) … percentage of compound remaining”) [2] of the same compound?
The value was 96%.

With `Cc1cc(CNC(=O)c2cc(C(=O)N[C@@H](C)c3ccc(-c4noc(CCC(=O)O)n4)cc3)ncn2)ccc1F` [Example 1021] as the compound, how does the IC50 (MMP-13; [5]) read?
Its IC50 is less than 200 nM.

With `C[C@H](NC(=O)c1cc(C(=O)NCc2ccc(F)cc2)ncn1)c1ccc(-c2nnn[nH]2)cc1` [Example 1007c] as the compound, how does the “Rat (%) … percentage of compound remaining” value [1] read?
Its value is 90%.

And the “Human (%) … percentage of compound remaining” value [2]?
Its value is 100%.

Which “Rat (%) … percentage of compound remaining” value [1] does the source give for `COc1cccc(CNC(=O)c2cc(C(=O)NCc3ccc(-c4nnn[nH]4)cc3)ncn2)c1` [Example 1040d, pyrimidine-4,6-dicarboxylic acid 4-(3-methoxybenzylamide) 6-[4-(1H-tetrazol-5-yl)-benzylamide]] here?
The value was 38%.

What about the “Human (%) … percentage of compound remaining” value [2] of the same compound?
Its value is 75%.

For `COc1cccc(CNC(=O)c2cc(C(=O)N[C@H](C)c3ccc(-c4nnn[nH]4)cc3)ncn2)c1` (stereo in doubt) [Example 1006], which IC50 (MMP-13; [6]) is on record?
The IC50 was greater than 100 nM.

What about the “Rat (%) … percentage of compound remaining” value [1] of the same compound?
Its value is 70%.

What about the “Human (%) … percentage of compound remaining” value [2] of the same compound?
Its value is 93%.

With `COc1cccc(CNC(=O)c2cc(C(=O)N[C@@H](C)c3ccc(-c4nnn[nH]4)cc3)ncn2)c1` [Example 1005] as the compound, how does the “cell viability, in words” value [3] read?
The value was “improvements”.

And the IC50 (MMP-13; [6])?
Its IC50 is less than 10 nM.

And the “microsomal stability, in words” value [4]?
The value was “improvements”.
